Laboratory results taken from patent US8784899B2, “Compositions and methods for cancer treatment” (priority 2005, dated 2014).

Columns and labels:
Type in all cases: cell-based
NB4 cells = experiment: Growth assay, viable cells by trypan blue exclusion, NB4; conditions: NB4, 100 μM trolox alone, any time point
Protocol: NB4, IM9 and AsR2 cells were seeded at 1×10^5 cells/ml in 24-well plates. Cells were treated with various concentrations of As2O3 or doxorubicin, alone or in combination with 100 μM trolox for six days. Viable cells were counted by trypan blue exclusion on day 1, 3 and 6. All cells were maintained at a density lower than 1×10^6 cells/ml through dilution as required, and media +/− treatment was replaced every third day. MCF-7, MDA-231 and T47D were seeded in 24-well plates at a density of 4000 cells/well. The next day, fresh media containing As2O3+/− trolox was added. On the days indicated, cells were fixed in 10% trichloroacetic acid and subsequently stained with sulforhodamine B (SRB). Bound SRB was solubilized in 10 mM unbuffered Tris and optical density was measured at 570 nm in a microplate reader.

NB4, AsR2 and IM9 cells = experiment: Apoptosis by propidium iodide staining and flow cytometry; conditions: 48 hours, all concentrations of arsenic tested
Protocol: Quantitation of apoptotic cells was performed as previously described (Hardin et al. J. Immunol. Methods. 1992; 154:99-107). Cells were treated, washed in buffer (PBS/5% FBS/0.01 M NaN3) at 4° C., pelleted, and resuspended in 0.5 ml of hypotonic fluorochrome solution containing 50 μg/ml propidium iodide (PI), 0.1% sodium citrate, and 0.1% Triton X-100™. Fluorescence was measured on a Becton-Dickinson™ FACS Calibur. Cells undergoing DNA fragmentation and apoptosis (those in which PI fluorescence was weaker than the typical G0-G1 cell cycle peak) were quantified using CellQUEST™ software.
To evaluate whether the growth inhibitory effect observed upon combined treatment of As2O3 and trolox in NB4, AsR2 and IM9 cells was due to the induction of apoptosis, cells were treated for 48 hours, subsequently stained with PI and analyzed by flow cytometry. […] To confirm an enhanced induction of apoptotic death, FITC-labeled Annexin V, which detects phosphatidylserine residues appearing on the external surface of early apoptotic cells, was used. Consistent with the increase in the subG0 subpopulation after PI staining, trolox augmented the percentage of cells positive for Annexin V (FIG. 2B lower panels). To further confirm the induction of apoptosis by the combination of As2O3 and trolox, we evaluated caspase 3 activation and PARP cleavage. […] Similar results were obtained with AsR2 and IM9 cells.

Heme oxygenase-1 (HO-1) = experiment: HO-1 protein levels by Western blot; conditions: NB4, IM9 and AsR2 cells, 24 hours
Protocol: Cell extracts were washed with cold PBS and resuspended in 0.1 ml lysis buffer (5 mM NaH2PO4, 1 mM DTT, 10% glycerol, 1 mM PMSF, 10 μg/ml each aprotinin and leupeptin, pH 7.4) at 4° C. Extracts were centrifuged at 14,000 rpm at 4° C., and supernatants were transferred to fresh tubes. Protein concentration was determined with the Bio-Rad™ protein assay (Bio-Rad, Mississauga, Ontario, Canada). To detect HO-1 or PARP, 50 μg of protein was added to an equal volume of 2× sample buffer and run on a 10% SDS-polyacrylamide gel. Proteins were transferred to nitrocellulose membranes (Bio-Rad), stained with Ponceau S in 5% acetic acid to ensure equal protein loading, and blocked with 5% milk in PBS containing 0.5% Triton X-100™ for 1 hour at room temperature. The membrane was hybridized overnight at 4° C. with antibody against PARP (1:1000; Oncogene) or 3 hours with an antibody against HO-1 (1:1000; StressGen). Following three washes with PBS and 0.5% Triton X-100™, blots were incubated with a goat anti-rabbit antibody (1:10,000; PharMingen) for one hour at room temperature. Bands were visualized by enhanced chemiluminescence (Amersham Pharmacia Biotech, Baie d'Urfe, Quebec, Canada). Immunostaining for β-actin was used to confirm equal protein loading. Immune complex kinase assays for c-jun kinase activity were performed as previously described (Davison et al. Blood. 2004; 103: 3496-3502).

Normal human PBMC = experiment: Colony forming unit assay of peripheral blood mononuclear cells
Protocol: Peripheral blood mononuclear cells (PBMC) were obtained from two healthy normal donors after obtaining informed consent and were collected into tubes containing 7.2 mg K2EDTA. The blood was diluted 1:3 in PBS, layered onto an equal volume of Ficoll-Plaque™ PLUS (Amershan Biosciences, Piscataway, N.J.) and centrifuged at 1500 rpm for 30 minutes. The mononuclear cell layer was collected and washed twice in PBS. Methylcellulose media was prepared by combining IMDM, 30% FBS, 1% bovine serum albumin, 10^−4M 2-mercaptoethanol, 2 mM L-glutamine, 0.1U penicillin, 0.1 μg/ml streptomycin, granulocyte-macrophage colony-stimulating factor (GM-CSF; 10 ng/ml), interleukin-3 (IL-3; 10 ng/ml0) and erythropoietin (EPO; 3U/ml). PBMC were seeded in this media at a concentration of 300,000 cells/ml and treated with or without As2O3, trolox or the combination. Cultures were performed in triplicate in 35 mm^2 dishes and incubated at 37° C. in 4% CO2. Colonies derived from […] (BFU-E) and CFU-GM were counted on day 7 and 13.

SMILES: Cc1c(C)c2c(c(C)c1O)CCC(C)(C(=O)O)O2 (stereo not shown) [trolox, Trolox]
- effect on cell number (NB4 cells): no effect on cell number
- apoptosis (PI staining) (NB4, AsR2 and IM9 cells): no effect on the apoptotic rate
- HO-1 protein induction (Heme oxygenase-1 (HO-1)): not detected
- colony formation (CFU-GM, BFU-E, CFU-E) (Normal human PBMC): did not inhibit colony formation
